Consider two molecules from paper PMC7407272, “Induction of Lysosome Membrane Permeabilization as a Therapeutic Strategy to Target Pancreatic Cancer Stem Cells” (Cancers, 2020).

The structures appear in SMILES notation.

In one assay the test system is PDAC4 cultures. As to the kind of experiment: Sphere formation assay. Conditions: 0.1 µg/mL GEM or Cpd 1 at 1.25 or 2.5 µM. The assay is classed as cell-based, human. The source says: (§1) Pancreatic CSC spheres were generated as previously described in ultra-low attachment plates (Corning) using CSC media: serum-free DMEM/F12 medium (1:1; #21331-020; Gibco, Waltham, MA, USA), supplemented with Pen/Strep (1:100; #1500-063; Gibco, Waltham, MA, USA), Fungizone (1:250; #15290-018; Gibco), L-Glutamine (1:100; #25030-024; Gibco, Waltham, MA, USA), B-27 (1:50; #17504-044; Gibco, Waltham, MA, USA) and basic fibroblast growth factor (FGF-b) (1:5000; Gibco, Waltham, MA, USA). All cell culture was carried out at 37 °C in a 5% CO2 humidified incubator. To quantify spheres of > 40 μm, 1 mL of sample volume was analyzed with a CASY® Cell Counter (Roche Applied Sciences, Mannheim, Germany). The CASY® Cell Counter measuring principle is based on a capillary particle counter with pulse area analysis, that permits the determination of cell count, cell concentration, cell volume (peak), and average cell diameter, specifically diameters of 40–80 μm, 80–120 μm and >120 μm.

The test system of a further assay is PDAC2 cultures. As to the kind of experiment: Sphere formation assay. The assay is classed as cell-based, human. The settings on record: 0.1 µg/mL GEM or Cpd 1 at 1.25 or 2.5 µM.
From the text: as §1

The next assay relates to PDAC4 3D spheres. As to the kind of experiment: Viability curves on PDAC4 3D spheres. The assay is classed as cell-based, human. Conditions: Homo sapiens, 30 h. From the text:
The PDAC patient-derived xenograft (PDX) Panc354 (referred to hereafter as PDAC3) was obtained from Dr. Manuel Hidalgo under a Material Transfer Agreement with the Spanish National Cancer Centre (CNIO), Madrid, Spain (Reference no. I409181220BSMH). PDAC1, PDAC2 and PDAC4 PDXs were established from primary patient resected tumors. Samples were provided by the BioBank Hospital Ramón y Cajal-IRYCIS (PT13/0010/0002), integrated in the Spanish National Biobanks Network and they were processed following standard operating procedures with the appropriate approval of the Ethical and Scientific Committees (Control no. No. Control: DE-BIOB-73 AC65, RG.BIOB-96 REV, and CI-BIOB-08-10-01 rev), with informed consent and according to Declaration of Helsinki principles. Primary patient tumors were subcutaneously implanted in immunocompromised female 6- to 8-week-old NU-Foxn1nu nude mice (Envigo, Barcelona, Spain) and subsequently passage in vivo to establish PDX PDAC1, PDAC2 and PDAC4. Primary PDX-derived in vitro cultures were established as previously detailed. […]
Pancreatic CSC spheres were generated as previously described in ultra-low attachment plates (Corning) using CSC media: serum-free DMEM/F12 medium (1:1; #21331-020; Gibco, Waltham, MA, USA), supplemented with Pen/Strep (1:100; #1500-063; Gibco, Waltham, MA, USA), Fungizone (1:250; #15290-018; Gibco), L-Glutamine (1:100; #25030-024; Gibco, Waltham, MA, USA), B-27 (1:50; #17504-044; Gibco, Waltham, MA, USA) and basic fibroblast growth factor (FGF-b) (1:5000; Gibco, Waltham, MA, USA). […] To quantify spheres of > 40 μm, 1 mL of sample volume was analyzed with a CASY® Cell Counter (Roche Applied Sciences, Mannheim, Germany). […]

A further assay addresses T1, CDK4-cyclinD1 (Homo sapiens, UniProt P11802).
T1 construct: purchased DiscoveRx KINOMEscan
As to the kind of experiment: KINOMEscan. The assay is classed as binding. Conditions: read-out: % Ctrl.

For the next assay, the target named is T2, DMPK2 (Homo sapiens, UniProt Q6DT37).
T2 construct: purchased DiscoveRx KINOMEscan
T2 sequence (Q6DT37 whole entry): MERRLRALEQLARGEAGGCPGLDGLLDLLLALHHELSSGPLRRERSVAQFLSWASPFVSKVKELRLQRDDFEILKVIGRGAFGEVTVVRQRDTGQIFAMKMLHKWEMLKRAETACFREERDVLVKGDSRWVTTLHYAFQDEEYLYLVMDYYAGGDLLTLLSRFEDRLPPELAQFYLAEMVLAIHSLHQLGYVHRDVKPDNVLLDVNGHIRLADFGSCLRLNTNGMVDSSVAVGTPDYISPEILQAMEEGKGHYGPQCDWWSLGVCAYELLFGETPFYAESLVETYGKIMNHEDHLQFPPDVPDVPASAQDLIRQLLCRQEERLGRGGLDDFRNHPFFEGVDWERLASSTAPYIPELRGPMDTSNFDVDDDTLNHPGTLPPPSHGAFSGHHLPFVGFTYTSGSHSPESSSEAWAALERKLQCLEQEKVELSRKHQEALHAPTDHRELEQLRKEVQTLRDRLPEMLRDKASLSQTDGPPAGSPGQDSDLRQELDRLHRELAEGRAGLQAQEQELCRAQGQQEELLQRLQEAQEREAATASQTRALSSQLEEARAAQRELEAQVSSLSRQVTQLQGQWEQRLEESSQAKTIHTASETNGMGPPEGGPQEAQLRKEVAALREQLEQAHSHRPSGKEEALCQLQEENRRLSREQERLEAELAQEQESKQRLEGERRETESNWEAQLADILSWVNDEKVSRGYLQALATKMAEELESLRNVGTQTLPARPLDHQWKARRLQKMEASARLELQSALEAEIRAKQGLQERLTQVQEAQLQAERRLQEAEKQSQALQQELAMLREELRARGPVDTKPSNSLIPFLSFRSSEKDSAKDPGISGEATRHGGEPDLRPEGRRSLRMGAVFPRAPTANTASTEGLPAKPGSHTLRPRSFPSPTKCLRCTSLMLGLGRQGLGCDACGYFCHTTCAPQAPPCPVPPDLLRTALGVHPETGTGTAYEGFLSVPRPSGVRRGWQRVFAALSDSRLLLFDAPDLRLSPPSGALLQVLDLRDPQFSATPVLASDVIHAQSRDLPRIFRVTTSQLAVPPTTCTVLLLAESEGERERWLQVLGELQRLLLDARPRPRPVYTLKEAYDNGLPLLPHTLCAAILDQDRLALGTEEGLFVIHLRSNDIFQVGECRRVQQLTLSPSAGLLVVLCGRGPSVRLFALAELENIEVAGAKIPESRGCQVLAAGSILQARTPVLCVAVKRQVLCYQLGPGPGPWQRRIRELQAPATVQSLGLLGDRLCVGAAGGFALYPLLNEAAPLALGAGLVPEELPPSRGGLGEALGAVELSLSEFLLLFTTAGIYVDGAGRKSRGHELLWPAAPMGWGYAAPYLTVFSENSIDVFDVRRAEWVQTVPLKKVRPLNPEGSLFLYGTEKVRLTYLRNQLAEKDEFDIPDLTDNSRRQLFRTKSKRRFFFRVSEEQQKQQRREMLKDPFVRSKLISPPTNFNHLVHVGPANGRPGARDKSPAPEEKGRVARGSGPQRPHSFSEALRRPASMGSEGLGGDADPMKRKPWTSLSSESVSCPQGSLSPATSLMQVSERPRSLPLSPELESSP
As to the kind of experiment: KINOMEscan. The class given is binding. The settings on record: read-out: % Ctrl.

For another assay, the target named is T3, NEK6 (Homo sapiens, UniProt Q9HC98).
T3 construct: purchased DiscoveRx KINOMEscan
T3 sequence (Q9HC98 whole entry): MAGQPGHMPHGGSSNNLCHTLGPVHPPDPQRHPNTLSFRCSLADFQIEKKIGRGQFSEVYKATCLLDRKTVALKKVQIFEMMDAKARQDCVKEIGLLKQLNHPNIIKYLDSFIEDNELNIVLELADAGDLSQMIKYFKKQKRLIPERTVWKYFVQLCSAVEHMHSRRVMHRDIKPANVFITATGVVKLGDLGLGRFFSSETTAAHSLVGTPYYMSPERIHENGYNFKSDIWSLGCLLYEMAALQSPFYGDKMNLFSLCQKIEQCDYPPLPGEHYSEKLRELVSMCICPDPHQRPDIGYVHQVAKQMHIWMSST
As to the kind of experiment: KINOMEscan. The assay is classed as binding. Conditions: read-out: % Ctrl.

The next assay addresses T4, CHEK2 (Homo sapiens, UniProt O96017).
T4 construct: purchased DiscoveRx KINOMEscan
As to the kind of experiment: KINOMEscan. The class given is binding. The settings on record: read-out: % Ctrl.

Another assay addresses T5, CAMK1G (Homo sapiens, UniProt Q96NX5).
T5 construct: purchased DiscoveRx KINOMEscan
Description: KINOMEscan. The class given is binding. Conditions: read-out: % Ctrl.

In the next assay the target is T6, MET(M1250T) (Homo sapiens, UniProt P08581, M1250T).
T6 construct: purchased DiscoveRx KINOMEscan
T6 sequence (P08581 25-1390 M1250T): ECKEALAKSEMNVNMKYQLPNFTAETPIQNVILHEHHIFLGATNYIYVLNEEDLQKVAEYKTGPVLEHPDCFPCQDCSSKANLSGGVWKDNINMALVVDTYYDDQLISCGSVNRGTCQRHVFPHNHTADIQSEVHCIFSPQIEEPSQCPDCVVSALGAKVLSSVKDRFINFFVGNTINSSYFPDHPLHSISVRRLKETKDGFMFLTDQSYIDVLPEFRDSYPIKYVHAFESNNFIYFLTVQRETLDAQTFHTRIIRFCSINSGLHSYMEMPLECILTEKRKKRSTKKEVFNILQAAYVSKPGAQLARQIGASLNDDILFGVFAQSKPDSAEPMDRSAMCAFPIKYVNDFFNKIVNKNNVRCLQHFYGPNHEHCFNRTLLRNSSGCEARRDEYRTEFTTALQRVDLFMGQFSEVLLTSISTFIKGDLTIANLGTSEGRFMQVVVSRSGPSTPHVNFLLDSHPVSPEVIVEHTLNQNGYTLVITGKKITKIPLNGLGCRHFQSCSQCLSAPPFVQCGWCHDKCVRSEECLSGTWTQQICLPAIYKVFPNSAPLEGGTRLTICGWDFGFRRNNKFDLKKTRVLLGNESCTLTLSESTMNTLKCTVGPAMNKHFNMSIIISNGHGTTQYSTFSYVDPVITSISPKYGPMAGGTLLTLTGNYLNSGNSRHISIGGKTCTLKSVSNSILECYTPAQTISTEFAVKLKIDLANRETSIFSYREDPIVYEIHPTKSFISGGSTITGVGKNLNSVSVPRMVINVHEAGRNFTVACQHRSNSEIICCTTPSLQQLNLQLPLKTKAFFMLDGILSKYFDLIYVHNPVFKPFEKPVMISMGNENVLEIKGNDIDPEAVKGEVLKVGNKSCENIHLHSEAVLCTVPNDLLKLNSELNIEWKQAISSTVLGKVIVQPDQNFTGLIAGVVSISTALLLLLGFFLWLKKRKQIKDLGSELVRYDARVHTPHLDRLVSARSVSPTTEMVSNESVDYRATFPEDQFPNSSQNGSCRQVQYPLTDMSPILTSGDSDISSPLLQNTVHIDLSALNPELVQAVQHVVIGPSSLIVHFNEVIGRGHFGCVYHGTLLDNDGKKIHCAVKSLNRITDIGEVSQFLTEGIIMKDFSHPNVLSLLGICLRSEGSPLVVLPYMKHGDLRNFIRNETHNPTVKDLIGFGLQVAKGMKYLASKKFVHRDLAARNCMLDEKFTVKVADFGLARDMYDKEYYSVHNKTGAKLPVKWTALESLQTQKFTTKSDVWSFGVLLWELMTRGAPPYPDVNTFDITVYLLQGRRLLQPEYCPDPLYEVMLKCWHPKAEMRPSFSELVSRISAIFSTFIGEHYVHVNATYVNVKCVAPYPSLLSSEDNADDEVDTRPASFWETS
As to the kind of experiment: KINOMEscan. The assay is classed as binding. Conditions: read-out: % Ctrl.

Another assay addresses T7, IGF1R (Homo sapiens, UniProt P08069).
T7 construct: purchased DiscoveRx KINOMEscan
As to the kind of experiment: KINOMEscan. The assay is classed as binding. The settings on record: read-out: % Ctrl.

The target in a further assay is T8, TLK2 (Homo sapiens, UniProt Q86UE8).
T8 construct: purchased DiscoveRx KINOMEscan
T8 sequence (Q86UE8 whole entry): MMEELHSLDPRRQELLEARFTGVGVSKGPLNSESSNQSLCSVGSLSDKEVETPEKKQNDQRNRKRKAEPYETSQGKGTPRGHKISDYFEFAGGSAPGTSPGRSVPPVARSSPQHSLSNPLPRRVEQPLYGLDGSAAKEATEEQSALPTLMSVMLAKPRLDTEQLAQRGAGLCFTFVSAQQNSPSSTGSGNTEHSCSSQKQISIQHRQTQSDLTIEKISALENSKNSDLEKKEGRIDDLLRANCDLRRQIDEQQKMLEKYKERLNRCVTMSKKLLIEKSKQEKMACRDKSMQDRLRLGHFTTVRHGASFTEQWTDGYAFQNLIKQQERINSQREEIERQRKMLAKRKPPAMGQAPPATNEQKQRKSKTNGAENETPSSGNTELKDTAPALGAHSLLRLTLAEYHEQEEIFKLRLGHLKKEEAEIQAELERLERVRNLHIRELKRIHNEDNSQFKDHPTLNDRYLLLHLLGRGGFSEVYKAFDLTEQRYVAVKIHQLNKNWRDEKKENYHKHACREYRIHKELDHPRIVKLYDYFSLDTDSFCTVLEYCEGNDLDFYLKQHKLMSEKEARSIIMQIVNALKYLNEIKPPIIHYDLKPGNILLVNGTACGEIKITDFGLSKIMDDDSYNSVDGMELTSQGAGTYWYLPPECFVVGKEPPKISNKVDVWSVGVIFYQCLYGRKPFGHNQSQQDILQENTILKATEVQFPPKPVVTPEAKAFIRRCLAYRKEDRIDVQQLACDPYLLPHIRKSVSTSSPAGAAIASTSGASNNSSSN
As to the kind of experiment: KINOMEscan. The assay is classed as binding. The settings on record: read-out: % Ctrl.

T1 sequence (P11802 whole entry): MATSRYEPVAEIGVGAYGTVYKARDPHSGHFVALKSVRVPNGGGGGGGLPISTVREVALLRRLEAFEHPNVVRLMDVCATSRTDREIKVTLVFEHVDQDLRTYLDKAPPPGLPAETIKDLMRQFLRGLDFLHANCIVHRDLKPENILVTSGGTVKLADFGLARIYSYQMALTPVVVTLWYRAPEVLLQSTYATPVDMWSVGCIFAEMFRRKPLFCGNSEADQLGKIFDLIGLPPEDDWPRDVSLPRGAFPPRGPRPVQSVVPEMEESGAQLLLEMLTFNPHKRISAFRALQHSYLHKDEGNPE
T1 sequence (P24385 whole entry partner): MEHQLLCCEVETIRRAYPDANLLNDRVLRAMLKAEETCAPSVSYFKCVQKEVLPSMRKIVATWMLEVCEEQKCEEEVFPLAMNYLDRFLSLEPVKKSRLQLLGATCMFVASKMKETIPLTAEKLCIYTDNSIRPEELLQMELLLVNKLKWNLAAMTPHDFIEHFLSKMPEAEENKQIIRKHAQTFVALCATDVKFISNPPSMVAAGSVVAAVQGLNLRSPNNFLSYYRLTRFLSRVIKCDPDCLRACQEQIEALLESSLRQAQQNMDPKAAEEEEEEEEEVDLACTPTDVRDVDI
T5 sequence (Q96NX5 whole entry): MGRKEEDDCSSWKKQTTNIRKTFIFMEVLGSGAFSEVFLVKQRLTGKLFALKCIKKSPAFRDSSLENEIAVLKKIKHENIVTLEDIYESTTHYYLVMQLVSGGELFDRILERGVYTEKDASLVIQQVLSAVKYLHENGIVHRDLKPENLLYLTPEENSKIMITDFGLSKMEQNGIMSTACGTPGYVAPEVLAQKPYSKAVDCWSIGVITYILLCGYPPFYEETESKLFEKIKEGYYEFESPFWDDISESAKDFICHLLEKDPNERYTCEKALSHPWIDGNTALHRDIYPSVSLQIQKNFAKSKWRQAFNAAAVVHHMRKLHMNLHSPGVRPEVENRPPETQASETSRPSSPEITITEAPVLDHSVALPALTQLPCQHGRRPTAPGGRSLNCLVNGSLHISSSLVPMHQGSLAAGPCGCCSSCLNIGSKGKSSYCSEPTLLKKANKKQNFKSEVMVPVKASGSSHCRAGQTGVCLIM

On to `COc1nc2ccc(NCC3CCN(C)CC3)nn2c1C(=O)Nc1cccc(OC(F)(F)F)c1` [Cpd 1], for which the sphere-forming capacity result in the assay with PDAC4 cultures and with PDAC2 cultures was “decreased sphere forming capacity” throughout.

A word on the EC50: it is the concentration giving half of the maximal effect. Low readings indicate a more potent agent, high ones a less potent agent. In the assay with PDAC4 3D spheres, `CN1CCC(CNc2ccc3ncc(C(=O)Nc4cccc(OC(F)(F)F)c4)n3n2)CC1` [Cpd 2] came in with an EC50 of 7.17 µM. Besides, the remaining binding at 1 µM on CDK4-cyclinD1 amounted to 100%; on DMPK2, 97%; on NEK6 it was 100%; on CHEK2 it was 95%; at CAMK1G, 92%; on MET(M1250T) it was 100%. Further, the remaining binding at 1 µM on IGF1R and on TLK2 was 100% in each case.
